Measurements reported in US20110166112A1, “METHOD FOR STIMULATING PLATELET PRODUCTION” (Eisai, Inc., priority 2009, published 2011).

System: subjects with chronic ITP
Experiment: Combined 28-day and 6-month rollover studies of E5501: safety (TEAEs, serious TEAEs, thromboembolic events, neoplasms, liver toxicity, discontinuations)
Type: in vivo, human
Details: N=22
Text: Primary Endpoint: The primary endpoint was to assess the safety and tolerability to E5501, including AEs and clinical laboratory parameters, over the 6 additional months of treatment.
In this way, safety data reflect each subject's complete duration of exposure to E5501 starting with lead-in the previous study and continuing into the current study.
Following Protocol Amendment 4, the current study contained a flexible dose regimen; therefore, this study was considered to have an open-label, uncontrolled, single-arm design. […] This was the method used to assess safety. • Grouping method B was based on both treatment received and day 28 platelet response to study drug in Study the previous study. This was the method used for the analysis of efficacy for the FAS and the SE population.
Overall Adverse Events. […] The primary focus is on summary statistics for the entire safety population and provides an overall safety profile for E5501. The summary statistics for each group, e.g., lower ⅓, middle ⅓ and upper ⅓ average daily dose levels, is secondary and provides further safety information across the 3 dose levels.

O=C(Nc1nc(-c2cc(Cl)cs2)c(N2CCN(C3CCCCC3)CC2)s1)c1cnc(N2CCC(C(=O)O)CC2)c(Cl)c1 [E5501, 1-(3-chloro-5-{[4-(4-chlorothiophen-2-yl)-5-(4-cyclohexylpiperazin-1-yl)thiazol-2-yl]carbamoyl}pyridine-2-yl)piperidine-4-carboxylic acid]
Serious TEAE, n of subjects (Lower ⅓ dose (2.5-<8.85 mg)): 1 | Serious treatment-related TEAEs, % of subjects (Lower ⅓ dose (2.5-<8.85 mg)): (4.5) % | Serious treatment-related TEAEs, n of subjects (Lower ⅓ dose (2.5-<8.85 mg)): 1 | Severe (grade 3-4) TEAEs, % of subjects (Lower ⅓ dose (2.5-<8.85 mg)): (18.2) % | Severe (grade 3-4) TEAEs, n of subjects (Lower ⅓ dose (2.5-<8.85 mg)): 4 | Somnolence, n of subjects (Lower ⅓ dose (2.5-<8.85 mg)): 0 | Suspected drug-related AEs, % of subjects (Lower ⅓ dose (2.5-<8.85 mg)): (59.1) % | Suspected drug-related AEs, n of subjects (Lower ⅓ dose (2.5-<8.85 mg)): 13 | Upper respiratory tract infection, % of subjects (Lower ⅓ dose (2.5-<8.85 mg)): (9.1) % | Upper respiratory tract infection, n of subjects (Lower ⅓ dose (2.5-<8.85 mg)): 2 | Vomiting, % of subjects (Lower ⅓ dose (2.5-<8.85 mg)): (4.5) % | Vomiting, n of subjects (Lower ⅓ dose (2.5-<8.85 mg)): 1 | Withdrawal due to TEAE, % of subjects (Lower ⅓ dose (2.5-<8.85 mg)): (13.6) % | Withdrawal due to TEAE, n of subjects (Lower ⅓ dose (2.5-<8.85 mg)): 3 | Abdominal pain upper, n of subjects (Middle ⅓ dose (≧8.85-<13.5 mg)): 0 | Any Serious TEAE, n (%) of subjects (Middle ⅓ dose (≧8.85-<13.5 mg)): 3 (13.6) n (%) | Any TEAE, % of subjects (Middle ⅓ dose (≧8.85-<13.5 mg)): (100.0) % | Any TEAE, n of subjects (Middle ⅓ dose (≧8.85-<13.5 mg)): 22 | Arthralgia, % of subjects (Middle ⅓ dose (≧8.85-<13.5 mg)): (18.2) % | Arthralgia, n of subjects (Middle ⅓ dose (≧8.85-<13.5 mg)): 4 | Asthenia, n of subjects (Middle ⅓ dose (≧8.85-<13.5 mg)): 0 | Back pain, % of subjects (Middle ⅓ dose (≧8.85-<13.5 mg)): (9.1) % | Back pain, n of subjects (Middle ⅓ dose (≧8.85-<13.5 mg)): 2 | Constipation, % of subjects (Middle ⅓ dose (≧8.85-<13.5 mg)): (13.6) % | Constipation, n of subjects (Middle ⅓ dose (≧8.85-<13.5 mg)): 3 | Contusion, % of subjects (Middle ⅓ dose (≧8.85-<13.5 mg)): (13.6) % | Contusion, n of subjects (Middle ⅓ dose (≧8.85-<13.5 mg)): 3 | Cough, n of subjects (Middle ⅓ dose (≧8.85-<13.5 mg)): 0 | Deaths, n of subjects (Middle ⅓ dose (≧8.85-<13.5 mg)): 0 | Diarrhoea, % of subjects (Middle ⅓ dose (≧8.85-<13.5 mg)): (4.5) % | Diarrhoea, n of subjects (Middle ⅓ dose (≧8.85-<13.5 mg)): 1 | Dizziness, % of subjects (Middle ⅓ dose (≧8.85-<13.5 mg)): (4.5) % | Dizziness, n of subjects (Middle ⅓ dose (≧8.85-<13.5 mg)): 1 | Dose interruption due to TEAE, % of subjects (Middle ⅓ dose (≧8.85-<13.5 mg)): (13.6) % | Dose interruption due to TEAE, n of subjects (Middle ⅓ dose (≧8.85-<13.5 mg)): 3 | Dyspnoea, % of subjects (Middle ⅓ dose (≧8.85-<13.5 mg)): (13.6) % | Dyspnoea, n of subjects (Middle ⅓ dose (≧8.85-<13.5 mg)): 3 | Ecchymosis, % of subjects (Middle ⅓ dose (≧8.85-<13.5 mg)): (9.1) % | Ecchymosis, n of subjects (Middle ⅓ dose (≧8.85-<13.5 mg)): 2 | Epistaxis, % of subjects (Middle ⅓ dose (≧8.85-<13.5 mg)): (13.6) % | Epistaxis, n of subjects (Middle ⅓ dose (≧8.85-<13.5 mg)): 3 | Fatigue, % of subjects (Middle ⅓ dose (≧8.85-<13.5 mg)): (31.8) % | Fatigue, n of subjects (Middle ⅓ dose (≧8.85-<13.5 mg)): 7 | Gingival bleeding, % of subjects (Middle ⅓ dose (≧8.85-<13.5 mg)): (9.1) % | Gingival bleeding, n of subjects (Middle ⅓ dose (≧8.85-<13.5 mg)): 2 | Headache, % of subjects (Middle ⅓ dose (≧8.85-<13.5 mg)): (40.9) % | Headache, n of subjects (Middle ⅓ dose (≧8.85-<13.5 mg)): 9 | Insomnia, % of subjects (Middle ⅓ dose (≧8.85-<13.5 mg)): (13.6) % | Insomnia, n of subjects (Middle ⅓ dose (≧8.85-<13.5 mg)): 3 | Migraine, % of subjects (Middle ⅓ dose (≧8.85-<13.5 mg)): (4.5) % | Migraine, n of subjects (Middle ⅓ dose (≧8.85-<13.5 mg)): 1 | Mouth haemorrhage, n of subjects (Middle ⅓ dose (≧8.85-<13.5 mg)): 0 | Nausea, % of subjects (Middle ⅓ dose (≧8.85-<13.5 mg)): (9.1) % | Nausea, n of subjects (Middle ⅓ dose (≧8.85-<13.5 mg)): 2 | Pain in extremity, % of subjects (Middle ⅓ dose (≧8.85-<13.5 mg)): (9.1) % | Pain in extremity, n of subjects (Middle ⅓ dose (≧8.85-<13.5 mg)): 2 | Petechiae, % of subjects (Middle ⅓ dose (≧8.85-<13.5 mg)): (4.5) % | Petechiae, n of subjects (Middle ⅓ dose (≧8.85-<13.5 mg)): 1 | Platelet count increased, % of subjects (Middle ⅓ dose (≧8.85-<13.5 mg)): (9.1) % | Platelet count increased, n of subjects (Middle ⅓ dose (≧8.85-<13.5 mg)): 2 | Serious TEAE Cerebrovascular accident, n (%) of subjects (Middle ⅓ dose (≧8.85-<13.5 mg)): 0 n (%) | Serious TEAE Chest pain, n (%) of subjects (Middle ⅓ dose (≧8.85-<13.5 mg)): 0 n (%) | Serious TEAE Diarrhoea, n (%) of subjects (Middle ⅓ dose (≧8.85-<13.5 mg)): 0 n (%) | Serious TEAE Haemorrhage intracranial, n (%) of subjects (Middle ⅓ dose (≧8.85-<13.5 mg)): 1 (4.5) n (%) | Serious TEAE Lethargy, n (%) of subjects (Middle ⅓ dose (≧8.85-<13.5 mg)): 1 (4.5) n (%) | Serious TEAE Mitral valve incompetence, n (%) of subjects (Middle ⅓ dose (≧8.85-<13.5 mg)): 0 n (%) | Serious TEAE Myocardial infarction, n (%) of subjects (Middle ⅓ dose (≧8.85-<13.5 mg)): 1 (4.5) n (%) | Serious TEAE Nausea, n (%) of subjects (Middle ⅓ dose (≧8.85-<13.5 mg)): 1 (4.5) n (%) | Serious TEAE Pelvic venous thrombosis, n (%) of subjects (Middle ⅓ dose (≧8.85-<13.5 mg)): 1 (4.5) n (%) | Serious TEAE Platelet count decreased, n (%) of subjects (Middle ⅓ dose (≧8.85-<13.5 mg)): 1 (4.5) n (%) | Serious TEAE Pneumonia, n (%) of subjects (Middle ⅓ dose (≧8.85-<13.5 mg)): 1 (4.5) n (%) | Serious TEAE Pyrexia, n (%) of subjects (Middle ⅓ dose (≧8.85-<13.5 mg)): 0 n (%) | Serious TEAE Thrombocytopenia, n (%) of subjects (Middle ⅓ dose (≧8.85-<13.5 mg)): 0 n (%) | Serious TEAE Transient ischaemic attack, n (%) of subjects (Middle ⅓ dose (≧8.85-<13.5 mg)): 1 (4.5) n (%) | Serious TEAE Vomiting, n (%) of subjects (Middle ⅓ dose (≧8.85-<13.5 mg)): 1 (4.5) n (%) | Serious TEAE, % of subjects (Middle ⅓ dose (≧8.85-<13.5 mg)): (13.6) % | Serious TEAE, SOC Blood and lymphatic system disorders, n (%) of subjects (Middle ⅓ dose (≧8.85-<13.5 mg)): 0 n (%) | Serious TEAE, SOC Cardiac disorders, n (%) of subjects (Middle ⅓ dose (≧8.85-<13.5 mg)): 1 (4.5) n (%) | Serious TEAE, SOC Gastrointestinal disorders, n (%) of subjects (Middle ⅓ dose (≧8.85-<13.5 mg)): 1 (4.5) n (%) | Serious TEAE, SOC General disorders and administration site conditions, n (%) of subjects (Middle ⅓ dose (≧8.85-<13.5 mg)): 0 n (%) | Serious TEAE, SOC Infections and infestations, n (%) of subjects (Middle ⅓ dose (≧8.85-<13.5 mg)): 1 (4.5) n (%) | Serious TEAE, SOC Investigations, n (%) of subjects (Middle ⅓ dose (≧8.85-<13.5 mg)): 1 (4.5) n (%) | Serious TEAE, SOC Nervous system disorders, n (%) of subjects (Middle ⅓ dose (≧8.85-<13.5 mg)): 2 (9.1) n (%) | Serious TEAE, SOC Vascular disorders, n (%) of subjects (Middle ⅓ dose (≧8.85-<13.5 mg)): 1 (4.5) n (%) | Serious TEAE, n of subjects (Middle ⅓ dose (≧8.85-<13.5 mg)): 3 | Serious treatment-related TEAEs, % of subjects (Middle ⅓ dose (≧8.85-<13.5 mg)): (4.5) % | Serious treatment-related TEAEs, n of subjects (Middle ⅓ dose (≧8.85-<13.5 mg)): 1 | Severe (grade 3-4) TEAEs, % of subjects (Middle ⅓ dose (≧8.85-<13.5 mg)): (22.7) % | Severe (grade 3-4) TEAEs, n of subjects (Middle ⅓ dose (≧8.85-<13.5 mg)): 5 | Somnolence, n of subjects (Middle ⅓ dose (≧8.85-<13.5 mg)): 0 | Suspected drug-related AEs, % of subjects (Middle ⅓ dose (≧8.85-<13.5 mg)): (68.2) % | Suspected drug-related AEs, n of subjects (Middle ⅓ dose (≧8.85-<13.5 mg)): 15 | Upper respiratory tract infection, % of subjects (Middle ⅓ dose (≧8.85-<13.5 mg)): (4.5) % | Upper respiratory tract infection, n of subjects (Middle ⅓ dose (≧8.85-<13.5 mg)): 1
